# Literature values as cited in patent US4833152A, “Anti-hypertensive agents” (University of Miami, priority 1987, dated 1989).
# Legend:
# [1] = 1 mg per ml, pH about 8, as little as 30 minutes, ambient conditions
compound,measurement,setting,value
CC(=O)SC[C@@H](C)C(=O)N1CCC[C@H]1C(=O)O [S-acetyl derivative],potency of the inhibitor on substitution of the sulfhydryl,"ACE; relative to free sulfhydryl SQ14225, Cushman et al., Biochemistry",substantially reduced potency of the inhibitor
"C[C@H](CS)C(=O)N1CCCC1C(=O)O (stereo in doubt) [SQ14225, D-3-mercapto-2-methylpropanoyl-L-proline]","ACE inhibition, in words","ACE; U.S. Pat. No. 4,046,889, Cushman 1977, Ondetti 1977",highly effective inhibitor
same,loss of activity of fresh aqueous solution on standing,[1],substantially less active upon standing for as little as 30 minutes
C[C@H](CSSC[C@@H](C)C(=O)N1CCC[C@H]1C(=O)O)C(=O)N1CCC[C@H]1C(=O)O [disulfide],inhibitory activity of the disulfide,"ACE; disulfide formed by dimerization of SQ14225, believed",largely inactive as an inhibitor
